We go through one molecule from patent publication US20060281174A1, “Methods for generating insulin-producing cells” (priority 2004, published 2006).

The assay deals with Human MSCs and Pancl cells. As to the kind of experiment: Co-culture of human MSCs and Pancl cells in induction media with added factors to potentiate differentiation. It is filed as cell-based. To be noted: MSC/Pancl co-culture, induction media 1% ITS, 2% BSA in DMEM; 100 μM, 10 days. As to the method: Design: Human MSCs from Clontech (Palo Alto, CA), passage 4-6, and Pancl cells from ATCC, passage 2-6, were used in the experiment. 5 ×10ˆ5 cells for both cells were seeded in 10 cm tissue culture treated dishes in a 1:1 combination media of DMEM containing 10% FBS and a MSC growth media purchased from CAMBREX (Walkersville, MD). After 2-3 days of culture, the media was replaced by the induction media containing1% ITS, 2% BSA in DMEM. The proteasome inhibitor, Lactocystin, was added into the media at the final concentration of 100 μM to potentiate the differentiation for 10 days.
Design: Human MSCs from Clontech, passage 4-6, and Pancl cells from ATCC, passage 2-6, were used in the experiment. 5 ×10ˆ5 cells for both cells were seeded in 10 cm tissue culture treated dishes in a 1:1 media of DMEM containing 10% FBS, and a MSC growth media purchased from CAMBREX. After 2-3 days of culture, the media was replaced by the induction media containing 1% ITS, 2% BSA in DMEM for 10 days. A growth factor cocktail containing bFGF, EGF, Exendin-4 and Nicotinamide, was added into the media to potentiate the differentiation.
Design: Human MSCs from Clontech, passage 4-6, and Pancl cells from ATCC, passage 2-6, were used in the experiment. 5 ×10ˆ5 cells for both cells were seeded in 10 cm tissue culture treated dishes in a 1:1 media of DMEM with 10% FBS, and MSC growth media purchased from CAMBREX. […]

As for `CC(=O)N[C@@H](CSC(=O)[C@]1([C@@H](O)C(C)C)NC(=O)[C@H](C)[C@@H]1O)C(=O)O` [Lactocystin], the expression of insulin result is on record as “No formation of clusters or expression of insulin” and the formation of clusters result is given as “No formation of clusters”.
